Where “and” joins values, the source holds several entries; their conditions need not be identical. Equal entries are not always repeated.
Columns and labels:
[1] = tested on: HepG2; assay: Repeated-exposure DILI training compounds, resazurin conversion, HepG2; conditions: listed as Nefadazone; for resazurin conversion (Supplementary Figure 7D): replicates; for % resazurin conversion: repeat exposure
Outline: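 PSC-derived cells differentiated in 384-well format, plus HepG2 seeded at 40,000 cells/well, received drugs after 8 h of attachment; untreated wells served as negative controls. Viability was measured by resazurin conversion and related to therapeutic Cmax values.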

[2] = tested on: HLC; assay: Repeated-exposure DILI training compounds, resazurin conversion, HLC; conditions: listed as Nefadazone; for resazurin conversion (Supplementary Figure 7D): replicates; for % resazurin conversion: repeat exposure
Outline: (§1)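 PSC-derived hepatocyte-like cells were differentiated in 384-well plates, and drugs were added after 8 h of attachment. Viability was measured by resazurin conversion and related to therapeutic Cmax values, with untreated wells as negative control.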

[3] = tested on: HC3X; assay: Repeated-exposure DILI training compounds, resazurin conversion, HC3X; conditions: for resazurin conversion (Supplementary Figure 7D): HC3X AAGLY D40, replicates
Outline: as §1

[4] = tested on: HC6X; assay: Repeated-exposure DILI training compounds, resazurin conversion, HC6X; conditions: listed as Nefadazone; for resazurin conversion (Supplementary Figure 7D): replicates; for % resazurin conversion: repeat exposure
Outline: as §1

CCc1nn(CCCN2CCN(c3cccc(Cl)c3)CC2)c(=O)n1CCOc1ccccc1 [nefazodone]
resazurin conversion (Supplementary Figure 7D) ([1]; HepG2 AAGLY D30, 3 uM): 105.9 and 126.8 and 102.6 and 103 and 93.1 and 96.9 | resazurin conversion (Supplementary Figure 7D) ([1]; HepG2 AAGLY D30, 5 uM): 129.6 and 134.9 and 121.5 and 111.6 and 104 and 111.7 | resazurin conversion (Supplementary Figure 7D) ([1]; HepG2 AAGLY D30, 10 uM): 105.3 and 123.3 and 96.5 and 99.1 and 96.1 and 97.4 | resazurin conversion (Supplementary Figure 7D) ([1]; HepG2 AAGLY D30, 30 uM): 36 and 76.7 and 84.8 and 78.3 and 78 and 67.3 | resazurin conversion (Supplementary Figure 7D) ([1]; HepG2 AAGLY D30, 50 uM): 9 and 9.3 and 8 (2×) and 8.1 and 7.7 | resazurin conversion (Supplementary Figure 7D) ([1]; HepG2 AAGLY D30, 100 uM): 9.2 and 9.7 and 8.4 (2×) and 7.9 and 8.1 | resazurin conversion (Supplementary Figure 7D) ([1]; HepG2 AAGLY D30, 300 uM): 11.5 and 11.8 and 10.1 (2×) and 10.3 and 9.9 | resazurin conversion (Supplementary Figure 7D) ([1]; HepG2 AAGLY D30, 600 uM): 11.8 and 11.6 and 10.3 and 10.8 and 10.2 and 10.1 | resazurin conversion (Supplementary Figure 7D) ([1]; HepG2 CTL D7, 3 uM): 81.4 and 72 and 103.7 and 72.2 and 87 and 94.4 | resazurin conversion (Supplementary Figure 7D) ([1]; HepG2 CTL D7, 5 uM): 84.8 and 64.7 and 80.3 and 68.3 and 74.8 and 74.1 | resazurin conversion (Supplementary Figure 7D) ([1]; HepG2 CTL D7, 10 uM): 81.6 and 63.4 and 87.3 and 63.9 and 78.5 and 72.9 | resazurin conversion (Supplementary Figure 7D) ([1]; HepG2 CTL D7, 30 uM): 60.5 and 51.3 and 64.3 and 51.4 and 61.6 and 55.4 | resazurin conversion (Supplementary Figure 7D) ([1]; HepG2 CTL D7, 50 uM): 35.6 and 31 and 32.6 and 33.9 and 34.6 and 33.7 | resazurin conversion (Supplementary Figure 7D) ([1]; HepG2 CTL D7, 100 uM): 30.9 and 30.6 and 31.4 and 30 and 30.5 and 29.7 | resazurin conversion (Supplementary Figure 7D) ([1]; HepG2 CTL D7, 300 uM): 36.6 and 35.8 and 37 and 36.1 and 37.2 and 36 | resazurin conversion (Supplementary Figure 7D) ([1]; HepG2 CTL D7, 600 uM): 37.5 (2×) and 36.2 and 38.4 and 36.6 and 34.9 | % resazurin conversion ([1]; HepG2 AAGLY D30, 1200 uM): 11% and 9.3% and 9.9% and 9.1% | % resazurin conversion ([1]; HepG2 CTL D7, 1200 uM): 34.4% and 33.1% and 36.4% and 33% and 34.9% and 32.3% | resazurin conversion (Supplementary Figure 7D) ([2]; HLC AAGLY D40, 3 uM): 81 and 139.4 and 131.8 and 81.1 and 194.1 and 102.8 | resazurin conversion (Supplementary Figure 7D) ([2]; HLC AAGLY D40, 5 uM): 158.2 and 102.6 and 130.1 and 239.6 and 167 and 46.2 | resazurin conversion (Supplementary Figure 7D) ([2]; HLC AAGLY D40, 10 uM): 117.1 and 195.1 and 92.8 and 87 and 6 and 258.8 | resazurin conversion (Supplementary Figure 7D) ([2]; HLC AAGLY D40, 30 uM): 52.4 and 182.9 and 124.1 and 55.1 and 48.3 and 27 | resazurin conversion (Supplementary Figure 7D) ([2]; HLC AAGLY D40, 50 uM): 46.9 and 25.2 and 26.1 and 23.4 and 30.1 and 22.3 | resazurin conversion (Supplementary Figure 7D) ([2]; HLC AAGLY D40, 100 uM): 22.1 and 23 and 22.5 and 22.9 and 24.2 and 22.8 | resazurin conversion (Supplementary Figure 7D) ([2]; HLC AAGLY D40, 300 uM): 25.4 and 26.9 (2×) and 25.9 and 25.8 and 27.1 | resazurin conversion (Supplementary Figure 7D) ([2]; HLC AAGLY D40, 600 uM): 27.4 and 30.3 and 28.5 and 29.2 and 27.1 and 28.7 | resazurin conversion (Supplementary Figure 7D) ([2]; HLC LDM D40, 3 uM): 101.3 and 106.4 and 83.1 and 128.8 and 110.4 and 128.2 | resazurin conversion (Supplementary Figure 7D) ([2]; HLC LDM D40, 5 uM): 103.9 and 126.1 and 116.3 and 112.6 and 76.1 and 103.3 | resazurin conversion (Supplementary Figure 7D) ([2]; HLC LDM D40, 10 uM): 114.4 and 115.2 and 124.5 and 104.3 and 103.8 and 111.5 | resazurin conversion (Supplementary Figure 7D) ([2]; HLC LDM D40, 30 uM): 92.8 and 75.4 and 51.3 and 90.2 and 120.8 and 118.9 | resazurin conversion (Supplementary Figure 7D) ([2]; HLC LDM D40, 50 uM): 12.7 and 17.8 and 12.3 and 20.8 and 25.8 and 69.6 | resazurin conversion (Supplementary Figure 7D) ([2]; HLC LDM D40, 100 uM): 11 and 11.6 and 11.2 and 11.3 and 10.7 and 11.5 | resazurin conversion (Supplementary Figure 7D) ([2]; HLC LDM D40, 300 uM): 13.5 and 13.3 and 13.6 and 12.4 and 12.2 (2×) | resazurin conversion (Supplementary Figure 7D) ([2]; HLC LDM D40, 600 uM): 13.7 (2×) and 13.1 and 13.4 and 13.5 and 13.2 | % resazurin conversion ([2]; HLC AAGLY D40, 1200 uM): 28.9% and 30.9% and 30.5% and 32.9% and 28% and 30.1% | % resazurin conversion ([2]; HLC LDM D40, 1200 uM): 14.7% and 15.3% and 13.9% and 14.1% and 13.7% and 12% | resazurin conversion (Supplementary Figure 7D) ([3]; 3 uM, listed as Nefadazone): 123.3 and 103.5 and 107.9 and 73 and 98.7 and 69.4 | resazurin conversion (Supplementary Figure 7D) ([3]; 5 uM, listed as Nefadazone): 105.3 and 82.4 and 66.4 and 71.1 and 119.1 and 75.8 | resazurin conversion (Supplementary Figure 7D) ([3]; 10 uM, listed as Nefadazone): 99 and 147.2 and 96.3 and 91.8 and 116 and 76.9 | resazurin conversion (Supplementary Figure 7D) ([3]; 30 uM, listed as Nefadazone): 10.5 and 10.9 and 12.1 and 10 and 9.5 and 10.1 | resazurin conversion (Supplementary Figure 7D) ([3]; 50 uM, listed as Nefadazone): 10 and 9.9 and 9.3 (2×) and 9.2 and 9.8 | resazurin conversion (Supplementary Figure 7D) ([3]; 100 uM, listed as Nefadazone): 10.6 and 10.4 and 9.7 and 9.8 and 9.4 and 9.6 | resazurin conversion (Supplementary Figure 7D) ([3]; 300 uM, listed as Nefadazone): 11.9 and 11.5 and 10.9 and 11.2 and 10.5 and 10.7 | resazurin conversion (Supplementary Figure 7D) ([3]; 600 uM, listed as Nefadazone): 12 and 12.2 and 11.3 and 11.6 and 11.1 and 10.9 | IC50/Cmax ([3]; human): 12.43 | % resazurin conversion ([3]; repeat exposure, HC3X AAGLY D40, 1200 uM, listed as Nefadazone): 12.8% and 12.4% and 11.8% and 12.1% and 11.5% and 12.2% | resazurin conversion (Supplementary Figure 7D) ([4]; HC6X AAGLY D40, 3 uM): 86.5 and 67.1 and 73.3 and 119.9 and 72.8 and 62.6 | resazurin conversion (Supplementary Figure 7D) ([4]; HC6X AAGLY D40, 5 uM): 140.1 and 114.8 and 61.7 and 68.6 and 76.5 and 54.7 | resazurin conversion (Supplementary Figure 7D) ([4]; HC6X AAGLY D40, 10 uM): 51.6 and 55.1 and 57.3 and 43.6 and 49.8 and 39.8 | resazurin conversion (Supplementary Figure 7D) ([4]; HC6X AAGLY D40, 30 uM): 34.6 and 33.4 and 31.3 and 32.6 and 37.8 and 31.2 | resazurin conversion (Supplementary Figure 7D) ([4]; HC6X AAGLY D40, 50 uM): 34.2 and 34.7 and 32 and 32.2 and 31.8 and 32.4 | resazurin conversion (Supplementary Figure 7D) ([4]; HC6X AAGLY D40, 100 uM): 37.1 and 36.6 and 34.3 and 34.6 and 33.8 and 34.2 | resazurin conversion (Supplementary Figure 7D) ([4]; HC6X AAGLY D40, 300 uM): 40.6 and 41.1 and 39.2 and 40 and 39.1 and 37.4 | resazurin conversion (Supplementary Figure 7D) ([4]; HC6X AAGLY D40, 600 uM): 39.7 and 40.4 and 38.5 and 38.6 and 37.6 and 37.9 | resazurin conversion (Supplementary Figure 7D) ([4]; HC6X AAGLY D40 Remove dox, 3 uM): 183.4 and 100.9 and 109.5 and 115 and 122 and 109.2 | resazurin conversion (Supplementary Figure 7D) ([4]; HC6X AAGLY D40 Remove dox, 5 uM): 251 and 184.4 and 147 and 113 and 98.3 and 98.4 | resazurin conversion (Supplementary Figure 7D) ([4]; HC6X AAGLY D40 Remove dox, 10 uM): 257.2 and 78.2 and 239.1 and 205.6 and 148.8 and 110.7 | resazurin conversion (Supplementary Figure 7D) ([4]; HC6X AAGLY D40 Remove dox, 30 uM): 87 and 111.9 and 134.6 and 112.2 and 58.4 and 83.6 | resazurin conversion (Supplementary Figure 7D) ([4]; HC6X AAGLY D40 Remove dox, 50 uM): 39.8 and 27.8 and 36.9 and 29.8 and 32 and 29.6 | resazurin conversion (Supplementary Figure 7D) ([4]; HC6X AAGLY D40 Remove dox, 100 uM): 29.7 (2×) and 28.9 and 29.4 and 29.6 and 29.1 | resazurin conversion (Supplementary Figure 7D) ([4]; HC6X AAGLY D40 Remove dox, 300 uM): 34.3 and 32.8 and 33.8 and 34 and 34.1 and 34.5 | resazurin conversion (Supplementary Figure 7D) ([4]; HC6X AAGLY D40 Remove dox, 600 uM): 36.7 (2×) and 35.4 and 36 and 36.5 and 36.3 | % resazurin conversion ([4]; HC6X AAGLY D40, 1200 uM): 40.4% and 40.1% and 39.1% and 39.2% and 37.6% and 37.4% | % resazurin conversion ([4]; HC6X AAGLY D40 Remove dox, 1200 uM): 38.2% and 35.3% and 36.9% and 37.7% and 37% and 35.8%
